Entries after “also recorded” stand apart in the source; their conditions may differ. Like-named read-outs stand apart in the source and are kept apart here.
Legend:
HMG-CoA synthase = HMG-CoA synthase mRNA expression by reverse transcriptase-polymerase chain reaction; format: in vivo; conditions: RT-PCR, FIG. 5
LDL receptor = LDL receptor expression by reverse transcriptase-polymerase chain reaction in the liver; format: in vivo; conditions: RT-PCR in the liver following treatment, FIG. 8
[1] = test system: patients with dyslipidemia; experiment: LDL cholesterol in patients with dyslipidemia treated with propionic acid; format: in vivo, human; conditions: n=24, initial LDL cholesterol >110 mg/dl, after 2-6 months of treatment, FIG. 4
HMG-CoA reductase = HMG-CoA reductase expression by reverse transcriptase-polymerase chain reaction; format: in vivo; conditions: RT-PCR, FIG. 6
PCSK9 = PCSK9 expression by reverse transcriptase-polymerase chain reaction; format: in vivo; conditions: RT-PCR, FIG. 7
[2] = test system: hypercholesterolemic mouse model; experiment: LDL cholesterol in the hypercholesterolemic mouse model (high fat diet); format: in vivo
Source text: HF: High Fat (60 KJ % fat content); PA: Propionic Acid. […] HFD: High Fat Diet; PA: Propionic Acid.

pigs = conditions: comparatively higher doses; cited from earlier work
patients = conditions: high doses, cited from earlier work
[3] = test system: patients whose LDL cholesterol level had been adjusted to a stable level by atorvastatin; experiment: Patient study: propionate added to stable atorvastatin treatment, LDL value; format: in vivo, human; conditions: for LDL value / LDL cholesterol level (in words): 2×500 mg propionate for more than eight weeks in addition to atorvastatin, five patients, FIG. 9
Procedure: The decrease appears to be greatest in patients showing the highest initial LDL value,
FIG. 10 is a block diagram showing the result of a patient study. On the left, the diagram indicates the averaged initial value of the patients stable through administration of atorvastatin, on the right the averaged LDL value of the patients after taking 2×500 mg of propionate daily for at least eight weeks.
The patient study attests to the positive influence of 2×500 mg of sodium propionate in addition to atorvastatin.

[4] = test system: rats with normal and cholesterol-rich diets; conditions: cited from earlier work
rats = conditions: oral and rectal administration of high doses; cited from earlier work

Row | SMILES | expression of HMG-CoA synthase at mRNA level (HMG-CoA synthase) | expression of HMG-CoA synthase at mRNA level (HMG-CoA synthase; listed as Propionate) | expression of the LDL receptor (LDL receptor) | cholesterol-lowering effect (LDL cholesterol) [1] | expression of HMG-CoA reductase (HMG-CoA reductase) | expression of HMG-CoA reductase (HMG-CoA reductase; listed as Propionate) | expression of PCSK9 (PCSK9) | expression of PCSK9 (PCSK9; listed as Propionates) | LDL cholesterol ([2]; propionate alone, High Fat (60 KJ % fat content), FIG. 2) | LDL cholesterol ([2]; propionic acid additionally administered to atorvastatin, High Fat Diet, FIG. 3) | cholesterol concentration in back fat (pigs) | cholesterol content in the liver (pigs) | total cholesterol (pigs) | serum cholesterol level (patients; one case) | HDL serum cholesterol concentration (patients; second case) | reduction of the LDL value on average ([3]; 2×500 mg propionate daily for at least eight weeks on top of stable atorvastatin, FIG. 10) | LDL value / LDL cholesterol level (in words) [3] | total cholesterol ([4]; rats consuming cholesterol-rich food, about 100 mg per day) | total cholesterol ([4]; rats fed a normal diet) | liver cholesterol levels (rats)
1 | CCC(=O)O [propionic acid, Propionic acid] | negatively regulated; also recorded: reduced expression | significantly down-regulated; also recorded: much more pronounced than that of atorvastatin | Neither the propionic acid nor the atorvastatin has an effect | cholesterol-lowering effect | negatively regulated; also recorded: reduced expression | significantly down-regulated | no influence | do not have an effect | reduction of LDL cholesterol | trend towards further reduction of LDL cholesterol | significantly higher cholesterol concentration | slight increase | reduced total cholesterol | slight reduction | increased | ~40% | the LDL value was reduced | – | – | –
2 | CCC(=O)[O-].[Na+] [sodium propionate] | – | – | – | – | – | – | – | – | – | – | – | – | – | – | – | – | further significantly reduced | significant reduction in total cholesterol | practically no effect | only insignificantly
3 | CC(C)c1c(C(=O)Nc2ccccc2)c(-c2ccccc2)c(-c2ccc(F)cc2)n1CC[C@@H](O)C[C@@H](O)CC(=O)O [atorvastatin, reference compound] | but not by atorvastatin | – | Neither the propionic acid nor the atorvastatin has an effect | – | – | – | increased expression; also recorded: increase in PCSK9 expression | – | – | – | – | – | – | – | – | – | – | – | – | –

Source: patent US11602510B2, “Agent for use in the treatment of dyslipidemia” (Flexopharm Brain GMBH & Co. KG, priority 2017, dated 2023)
